# Assay results reported in patent US11213563B2, “Polypeptide and use thereof” (Genoimmune Therapeutics Co., Ltd., priority 2016, dated 2022).
# How the values were obtained:
# [1] = test system: CD8^+ T cells; assay: In vitro stimulation of CD8+ T cells by polypeptide-loaded mature DCs, cell counting; assay type: cell-based, human; conditions: CD8+ T cells with polypeptide-specific mature DCs, day 10; 2.5 × 10^6 cells before incubation
# Procedure: Peripheral blood mononuclear cells (PBMCs) in 100 mL peripheral blood obtained from a HLA-A0201-positive healthy volunteer were isolated using the Ficoll solution, where CD8^+ T cells among the PBMCs were isolated with CD8 magnetic beads, and monocytes among the PBMCs were incubated by an adherence method.
# The CD8^+ T cells from the volunteer in a well were incubated with the mature DCs obtained, along with IL-21, with addition of IL-2 and IL-7 after 3 days' culture and addition IL-2 and IL-7 again at day 5 and day 7 respectively, after which the collected mixture of cells were counted on day 10, for use in the next enzyme-linked immune-spot assay (ELISPOT) and lactate dehydrogenase (LDH) assay.
# [2] = test system: T2 cells; assay: LDH release assay of CD8+ T cell killing activity; assay type: cell-based, human; design: Killing efficiency: concentration or dose not given beside the values; conditions: for Killing efficiency: 4 hours; for Killing of T2 cells loaded with the mutant polypeptide by activated T cells / Killing of T2 cells loaded with the wild-type polypeptide by activated T cells: ratio of effector cells to target cells of 1:1 or 1:10 (so in the source)
# Procedure: The mixture of cells collected in the example 3 were incubated with the T2 cells loaded with the mutant polypeptide (depicted in […], SEQ ID NO:1) or the wild-type polypeptide (depicted in […], SEQ ID NO:7), or the T2 cells without polypeptide respectively for 4 hours; after which […], cell supernatant collected from each well was individually added into 50 μL substrate mixture of LDH for catalyzation of the LDH substrate, and the absorbance at wavelengths of 490 nm and 680 nm (as a reference) is measured, where a maximum release well, a volume correction well, a medium alone well, a spontaneous release well of effector cell and a spontaneous release well of target well as different control wells, as well effector cells (T cells) and target cells (T2 cell) in different ratios as experiment wells are set in triplicate.
# The killing efficiency of CD8^+ T cells to T2 cells is calculated by the following formula: Killing efficiency (%)=(experiment well−spontaneous release well of effector cell−spontaneous release well of target well+medium alone well)/(maximum release well of target well-volume correction well-spontaneous release well of target well+medium alone well)×100%.
# [3] = test system: human non-small cell lung adenocarcinoma cell line H2087-polypeptide FILDGLYSV; assay: DC polypeptide vaccine in subcutaneous tumor-modeled NOD/SCID mice; assay type: in vivo; conditions: DCs loaded with the polypeptide, intracutaneous, 2 injections; vs DCs loaded with wild-type polypeptide
# Procedure: After isolated with Ficoll solution from 600 to 900 ml anticoagulant peripheral blood from a healthy volunteer, the collected PBMCs in a concentration of 2×10^7 cells/0.5 ml were intraperitoneally injected into each of 300 NOD SCID mice without immune leakage, so as to reconstruct a human immune system in the NOD SCID mice, with the mice after 4 weeks selected for subsequent inoculation of the human non-small cell lung adenocarcinoma cell line H2087-polypeptide […] obtained in 6.2.
# The human non-small cell lung adenocarcinoma cell line H2087-polypeptide […] (SEQ ID NO:1) obtained in 6.2 was incubated in DMEM medium containing 10% fetal calf serum, 100 U/mL penicillin and 100 U/mL streptomycin in an incubator under 37° C. and 5% CO2, and then the cells were centrifuged at 3000 rpm for collection. The collected cells were washed with sterile physiological saline three times, and then diluted appropriately. To 40 μl tumor cell suspension, 10 μl 0.4% […] was added for staining, subsequently the tumor cell suspension in a concentration of 1×10^8 cells/ml was prepared after counting under microscope. 100 μl of the tumor cell suspension was inoculated into each of the NOD/SCID mice by subcutaneous injection at 4 weeks post immune reconstruction in 6.3, with daily observation of the presence/absence of infection at inoculation sites, the increase/decrease of tumor size (in the case of presence of a tumor), and measurement of the major axis (a) and the minor axis (b) of a tumor by a vernier caliper every 2 or 3 days (where the tumor size=a×b×b/2). After 7 days from inoculation, a tumor in a size of rice grain was touchable at the inoculation site. After that, the subcutaneous tumor-modeled NOD/SCID mice (modeled with H2087-polypeptide […] (SEQ ID NO:1)) were treated with a polypeptide+complete Freund's adjuvant vaccine, a polypeptide+DCs vaccine, a lentivirus-infected DCs vaccine and a DC-CTL vaccine respectively, with the tumor size and mouse survival rate observed and recorded every 2 days.
# Peripheral blood mononuclear cells (PBMCs) in 100 to 150 mL anticoagulant peripheral blood obtained from a healthy volunteer were isolated with Ficoll solution. The collected PBMCs suspended in the RPMI 1640 medium in a concentration of 2×10^6-3×10^6 cells/ml were incubated at 37° C. for 2 hours, obtaining adherent monocytes which can be induced into DCs, and non-adherent peripheral blood lymphocytes (PBLs) for use.
# The subcutaneous tumor-modeled NOD/SCID mice obtained in 6.4 of the example were randomly divided into seven groups as below, with 6 mice per group.
# For each of the above seven groups, DCs (respectively loaded with the wild-type polypeptide, the mutant polypeptide or each of five mutant polypeptide's variants) were washed with physiological saline three times and then diluted with the physiological saline to a concentration of (4.0±0.5)×10^7 cells/ml, and 0.1 ml of the resulting diluent (in a dosage of (4.0±0.5)×10^6 cells) was administrated to each inner thigh close to the inguen of each mouse by intracutaneous injection, at one week interval for 2 injections in total. The vital signs of the mice were observed after administration, and the major axis (a) and the minor axis (b) of a tumor were measured by a vernier caliper every 2 days for calculation of tumor size according to a formula of a×b×b/2, with the weight change and survival rate observed and recorded.
# [4] = T cells activated by listed polypeptide + T2 cells loaded with mutant FILDGLYSV, effector:target 1:1
# [5] = T cells activated by listed polypeptide + T2 cells loaded with mutant FILDGLYSV, effector:target 10:1
# [6] = T cells activated by listed polypeptide + T2 cells loaded with wild-type FILDGSYSV, effector:target 1:1
# [7] = T cells activated by listed polypeptide + T2 cells loaded with wild-type FILDGSYSV, effector:target 10:1
Sequence,Total number of cells in the well after incubation [1],"Killing efficiency [2, 4] [%]","Killing efficiency [2, 5] [%]","Killing efficiency [2, 6] [%]","Killing efficiency [2, 7] [%]",Killing of T2 cells loaded with the mutant polypeptide by activated T cells [2],Killing of T2 cells loaded with the wild-type polypeptide by activated T cells [2],Mouse survival period [3],Tumor growth [3]
"FLLDGLYSL [mutant polypeptide's variant, Leucine at positions 2 and 9]",1.03 × 10^7,7.05,35.15,3.56,6.21,capable of killing,could not kill,prolonging the mouse survival period,mitigating tumor growth significantly
FMLDGLYSV,1.71 × 10^7,9.15,42.10,2.37,5.63,capable of killing,could not kill,prolonging the mouse survival period,mitigating tumor growth significantly
"FILDGLYSV [mutant polypeptide from COL21A1, Serine at position 45 mutated into Leucine]",1.22 × 10^7,7.33,37.39,2.07,4.93,capable of killing,could not kill,prolonging the mouse survival period,mitigating tumor growth significantly
"FLLDGLYSV [mutant polypeptide's variant, Leucine at position 2]",1.42 × 10^7,8.38,39.16,2.85,5.43,capable of killing,could not kill,prolonging the mouse survival period,mitigating tumor growth significantly
FMLDGLYSL,1.66 × 10^7,8.96,40.13,3.13,5.83,capable of killing,could not kill,prolonging the mouse survival period,mitigating tumor growth significantly
"FILDGLYSL [mutant polypeptide's variant, Leucine at position 9]",1.35 × 10^7,8.09,38.60,3.12,4.71,capable of killing,could not kill,prolonging the mouse survival period,mitigating tumor growth significantly
